# Measured values as given in patent US12539324B2, “Antimicrobial peptide stimulating sanitizing composition” (GOJO Industries, Inc., priority 2016, dated 2026).
# Columns and labels:
# Format in all cases: cell-based, human
# HBD-1 = HBD-1 ELISA, dose response in NHEK culture medium; details: vs control culture medium
# Method: (§1) To determine the optimal dose of active ingredient, test dose response studies were run using both Decorinyl® and Pamitoyl Pentapeptided-3. These test dose response studies were commissioned to determine the concentration of HBD-1 at various levels of the active ingredients. Neonatal Human Epidermal Keratinocytes (NHEK; Life Technology, Grand Island, NY, USA) were cultured with keratinocyte growth medium (KGM, Medium 154: M-154-500 Life Technology with supplements S-001, Life Technologies). NHEK were seeded into 96-well plates at a density of 10000 cells in 200 μl medium per well. After 48 hours, the cells were incubated with varying concentrations of each ingredient solution in a culture medium (KGM) overnight (16 hours) at 37° C., 5% CO2 and 95% humidity at four replicates for each concentration. Each of these active ingredients was tested at the following weight percents based on the weight of the total culture: 0.02 wt. %, 0.05 wt. %, 0.1 wt. %, 0.2 wt. %, 0.5 wt. %, 1.0 wt. %, 2.0 wt. %. Each of these compositions was compared to a control culture medium.
# HBD-1 was detected using HBD-1 ELISA (enzyme-linked immunosorbent assay) developing kits (commercially available from Peprotech). […] The results were measured using a colorimeter, absorbance was measured at 450 nanometers (nm) within 30 minutes. […] The concentration of each sample was calculated using ELISA standard curve.
# HBD-2 = HBD-2 ELISA, dose response in NHEK culture medium; details: 2.0 wt. %, vs control culture medium
# Method: as §1, with “of HBD-2” for “of HBD-1”, “ingredients were” for “ingredients was”
# HBD-2 was detected using HBD-2 ELISA developing kits (commercially available from Peprotech). […] The results were measured using a colorimeter, absorbance was measured at 450 nanometers (nm) within 30 minutes. […] The concentration of each sample was calculated using ELISA standard curve.
# HBD-3 = HBD-3 ELISA, dose response in NHEK culture medium; details: vs control culture medium
# Method: as §1, with “HBD-3” for “HBD-1”, “5-001,” for “S-001,”
# HBD-3 was detected using HBD-3 ELISA developing kits (commercially available from Peprotech). […] The results were measured using a colorimeter, absorbance was measured at 450 nanometers (nm) within 30 minutes. […] The concentration of each sample was calculated using ELISA standard curve.
substance,measurement,setting,value
palmitoyl pentapeptide-3 [Pamitoyl Pentapeptided-3],increase in HBD-1 concentration,HBD-1; 1.0 wt. %,311%
same,increase in HBD-1 concentration,HBD-1; 2.0 wt. %,1561%
same,increase in HBD-2 concentration,HBD-2,2800%
same,increase in HBD-3 concentration,HBD-3; 1.0 wt. %,1005%
same,increase in HBD-3 concentration,HBD-3; 2.0 wt. %,1890%
